Source: patent US20080194585A1, “Fungicidal Pyrazine Derivatives” (priority 2005, published 2008)
Marks after values point to notes of the source that are not given here.

What was measured:
Settings in all cases: 40 ppm (marked *); 100 = 100% disease control, 0 = no control
Septoria tritici = assay: Test J: wheat leaf blotch, preventive spray on wheat seedlings; assay type: in vivo
Excerpt: A dash (-) indicates no test results.

Septoria nodorum = assay: Test H: wheat glum blotch, preventive spray on wheat seedlings
Procedure: (the causal agent of wheat glum blotch) and incubated in a saturated atmosphere at 20° C. for 48 h, and then moved to a growth chamber at 22° C. for 5 days, after which disease ratings were made.

Plasmopara viticola = assay: Test D: grape downy mildew, spray after inoculation of grape seedlings; assay type: in vivo
Excerpt: Upon removal, disease ratings were made. […] A dash (-) indicates no test results.

fusarium graminearium = assay: Test I: wheat head scab, preventive spray on wheat seedlings
Procedure: (the causal agent of wheat head scab) and incubated in a saturated atmosphere at 20° C. for 72 h, and then moved to a growth chamber at 22° C. for 5 days, after which disease ratings were made.

Phytophthora infestans = assay: whole plant or invertebrate; assay type: in vivo
Sclerotinia sclerotiorum = assay: Test C: cucumber white mold, preventive spray on cucumber seedlings
Botrytis cinerea = assay: Test E: tomato botrytis, preventive spray on tomato seedlings
[1] = system: Erysiphe graminis f. sp. tritici; assay: Test L: wheat powdery mildew, preventive spray on wheat seedlings
[2] = system: Puccinia recondita f. sp. tritici; assay: Test K: wheat leaf rust, preventive spray on wheat seedlings
[3] = system: Colletotrichum orbiculare; assay: Test B: cucumber Colletotrichum anthracnose, preventive spray on cucumber seedlings
Pythium aphanidermatum = assay: Test A: bluegrass pythium blight, preventive spray on bluegrass seedlings
Rhizoctonia oryzae = assay: Test G: turf brown patch, preventive spray on creeping bent grass seedlings
Procedure: (the causal agent of turf brown patch) and incubated in a saturated atmosphere at 27° C. for 24 h, and then moved to a growth chamber at 27° C. for 5 days, after which disease ratings were made.

SMILES	Test J disease control rating (Septoria tritici)	Test H disease control rating (Septoria nodorum)	Test D disease control rating (Plasmopara viticola)	Test I disease control rating (fusarium graminearium)	Test F disease control rating (Phytophthora infestans)	Test C disease control rating (Sclerotinia sclerotiorum)	Test E disease control rating (Botrytis cinerea)	Test L disease control rating [1]	Test K disease control rating [2]	Test B disease control rating [3]	Test A disease control rating (Pythium aphanidermatum)	Test G disease control rating (Rhizoctonia oryzae)
O=c1c(-n2cncn2)nc(Cl)c(-c2c(F)cccc2F)n1Cc1ccc(F)cc1 [compound 273]	92* %	0* %	0* %	0* %	0* %	0* %	99* %	0* %	86* %	0* %	0* %	0* %
N#Cc1nc(Cl)c(-c2c(F)cccc2F)n(Cc2ccc(F)cc2)c1=O [compound 274]	45* %	0* %	0* %	0* %	0* %	0* %	0* %	71* %	91* %	0* %	0* %	0* %
O=c1c(-n2cccn2)nc(Cl)c(-c2c(F)cccc2F)n1Cc1cccc(Cl)c1 [compound 275]	100* %	99* %	0* %	0* %	0* %	0* %	100* %	61* %	97* %	47* %	0* %	0* %
O=c1c(-n2cncn2)nc(Cl)c(-c2c(F)cccc2F)n1Cc1cccc(Cl)c1 [compound 276]	100* %	78* %	0* %	0* %	0* %	0* %	98* %	0* %	94* %	0* %	0* %	0* %
N#Cc1nc(Cl)c(-c2c(F)cccc2F)n(Cc2cccc(Cl)c2)c1=O [compound 277]	63* %	0* %	0* %	0* %	0* %	0* %	0* %	0* %	41* %	0* %	0* %	0* %
Cc1ccn(-c2nc(Cl)c(-c3c(F)cccc3F)n(-c3ccccc3)c2=O)n1 [compound 278]	100* %	100* %	31* %	0* %	0* %	0* %	100* %	99* %	100* %	88* %	0* %	92* %
Cc1ccn(-c2nc(Cl)c(-c3c(F)cccc3F)n(Cc3ccccc3)c2=O)n1 [compound 279]	100* %	98* %	0* %	0* %	0* %	0* %	99* %	99* %	100* %	78* %	0* %	41* %
Cc1ccn(-c2nc(Cl)c(-c3c(F)cccc3F)n(Cc3ccccc3F)c2=O)n1 [compound 280]	100* %	96* %	0* %	0* %	0* %	0* %	99* %	69* %	98* %	57* %	0* %	0* %
CC[C@H](C)Cn1c(-c2ccc(F)cc2Cl)c(Br)nc(-n2cccn2)c1=O [compound 281]	100* %	100* %	0* %	0* %	0* %	0* %	100* %	100* %	100* %	100* %	0* %	47* %
CC[C@H](C)Cn1c(-c2ccc(F)cc2Cl)c(Br)nc(-n2ccc(C)n2)c1=O [compound 282]	100* %	99* %	0* %	0* %	0* %	0* %	100* %	100* %	100* %	100* %	0* %	0* %
CC[C@H](C)Cn1c(-c2ccc(F)cc2Cl)c(Br)nc(N2CCC=N2)c1=O [compound 283]	100* %	0* %	0* %	0* %	47* %	0* %	98* %	97* %	96* %	94* %	0* %	0* %
CCCCn1c(-c2ccc(F)cc2Cl)c(Br)nc(-n2cccn2)c1=O [compound 284]	100* %	99* %	0* %	0* %	16* %	0* %	94* %	96* %	95* %	0* %	0* %	0* %
